How the values were obtained:
HS-PSS [1] = experiment: drug sensitivity score (DSS, CellTox-Green cytotoxicity, 72 h) (DSS (dimensionless)); higher = more cytotoxic; extreme values may be limits of the assay
How it was run: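 For 72 h at 37 °C, MPNST cell lines and primary human Schwann cells were exposed in 384-well plates to five 10-fold compound dilutions. CellTox-Green, added before seeding at a final 1:1000 dilution, gave fluorescence from DNA released by disrupted cells. Signals were scaled to vehicle and positive-control wells, cultures failing plate quality control were left out, and four-parameter logistic fits were applied. Relative IC50 and drug sensitivity score were derived from the fits, with IC50 censored at the top concentration.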

HS-Sch-2 [2] = experiment: % inhibition of CellTiter-Glo viability at highest tested concentration (72 h), relative to DMSO and benzethonium chloride controls; higher = more inhibition
How it was run: (§1)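 After seeding 750–1000 cells per well of MPNST cell lines or primary human Schwann cells into 384-well plates preprinted with each compound at five concentrations in 10-fold steps, plates were kept 72 h at 37 °C, 5% CO2. Viability was read as CellTiter-Glo ATP luminescence relative to vehicle and positive-control wells, with duplicates averaged where present. The data were fitted with four-parameter logistic models. Drug sensitivity score and relative IC50, censored at the top concentration, derive from the fits, and percent inhibition refers to the top concentration.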

HS-PSS [3] = experiment: as above
How it was run: as §1

YST-1 [4] = experiment: as above
How it was run: as §1

HS-Sch-2 [5] = experiment: drug sensitivity score (DSS, CellTiter-Glo viability, 72 h) (DSS (dimensionless)); higher = more sensitive; extreme values may be limits of the assay
How it was run: as §1

HS-PSS [6] = experiment: as above
How it was run: as §1

YST-1 [7] = experiment: as above
How it was run: as §1

Structure (SMILES) | drug sensitivity score (HS-PSS [1]) | % inhibition (HS-Sch-2 [2]) [%] | % inhibition (HS-PSS [3]) [%] | % inhibition (YST-1 [4]) [%] | drug sensitivity score (HS-Sch-2 [5]) | drug sensitivity score (HS-PSS [6]) | drug sensitivity score (YST-1 [7])
Cc1cc(-c2ncc(-c3cccnc3)cc2/C=C/c2ccccc2)cnc1-c1cccnc1 [Pyridoclax] (max concentration tested 25000 nM) | 0 | 19.9 | 9.44 | 62.7 | 1.52 | 0.36 | 16.5
CCNC(=O)Nc1ccc(-c2nc3c(c(N4CCOC[C@@H]4C)n2)CCN(C2COC2)C3)cc1 [RG-7603] (max concentration tested 2500 nM) | 0 | 33.8 | 32.4 | 56.2 | 3.02 | 1.5 | 6.56
Nc1cc(F)ccc1NC(=O)/C=C/c1cnn(C/C=C/c2ccccc2)c1 [RGFP966] (max concentration tested 10000 nM) | 0 | 52.7 | 33.2 | 55.7 | 4.52 | 4.21 | 5.15
C[C@@H]1C[C@H]2O[C@@H]2/C=C\C=C\C(=O)Cc2c(Cl)c(O)cc(O)c2C(=O)O1 [Radicicol] (max concentration tested 10000 nM) | 4.33 | 99.8 | 86.2 | 94 | 16.3 | 12.9 | 12.1
Cc1nc(=O)c2cc(CN(C)c3ccc(C(=O)N[C@@H](CCC(=O)O)C(=O)O)s3)ccc2[nH]1 [Raltitrexed] (max concentration tested 1000 nM) | 0 | 71.5 | 14.7 | 29.9 | 15.1 | 3.16 | 6.69
CN(C)Cc1ccc(S(=O)(=O)n2ccc(/C=C/C(=O)NO)c2)cc1 [Resminostat] (max concentration tested 10000 nM) | 2.12 | 100 | 84.1 | 101 | 7.57 | 6.36 | 13.8
CN(C)C(=O)c1cc2cnc(Nc3ccc(N4CCNCC4)cn3)nc2n1C1CCCC1 [Ribociclib] (max concentration tested 10000 nM) | 0 | 25.4 | 28.2 | 67 | 1.85 | 1.83 | 6.07
COc1cc(OC)c(/C=C/S(=O)(=O)Cc2ccc(OC)c(NCC(=O)O)c2)c(OC)c1 [Rigosertib] (max concentration tested 10000 nM) | 0 | 87.6 | 61.8 | 79.3 | 21.8 | 14.8 | 21.8
C=CC(=O)Nc1cccc(Nc2nc(Nc3ccc(N4CCN(C(C)=O)CC4)cc3OC)ncc2C(F)(F)F)c1 [Rociletinib] (max concentration tested 10000 nM) | 3.25 | 80.9 | 86.4 | 95.2 | 4.99 | 4.91 | 8.73
O=C(CCCCCCNC(=O)c1cnc(N(c2ccccc2)c2ccccc2)nc1)NO [Rocilinostat] (max concentration tested 10000 nM) | 0.39 | 81.2 | 58.4 | 89.5 | 6.66 | 3.58 | 9.5
C/C=C1\NC(=O)[C@H]2CSSCC/C=C/[C@H](CC(=O)N[C@H](C(C)C)C(=O)N2)OC(=O)[C@H](C(C)C)NC1=O [Romidepsin] (max concentration tested 1000 nM) | 3.93 | 100 | 95.4 | 98.5 | 33 | 5.59 | 37.8
COc1ccc(CCc2nc3cc(-c4c(C)noc4C)ccc3n2C[C@H](C)N2CCOCC2)cc1Cl [SGC-CBP30] (max concentration tested 25000 nM) | 0 | 60.7 | 40.4 | 62 | 5.7 | 1.59 | 5.72
CN1CCC(CNc2ccc3ncc(-c4cccc(OC(F)(F)F)c4)n3n2)CC1 [SGI-1776] (max concentration tested 10000 nM) | 6.8 | 101 | 101 | 101 | 7.09 | 6.88 | 9
Cn1cc(-c2ccc3nnc(Sc4ccc5ncccc5c4)n3n2)cn1 [SGX-523] (max concentration tested 5000 nM) | 0 | 5.27 | 2.63 | -2.5 | 0 | 0 | 0
CN(CC(=O)N(Cc1ccc(C2CCCCC2)cc1)c1ccc(C(=O)O)cc1)S(=O)(=O)c1c(F)c(F)c(F)c(F)c1F [SH-4-54] (max concentration tested 25000 nM) | 3.21 | 93 | 98.7 | 100 | 7.18 | 5.78 | 10.3
CC(C)NC(=O)COc1cccc(-c2nc(Nc3ccc4[nH]ncc4c3)c3ccccc3n2)c1 [SLx-2119] (max concentration tested 5000 nM) | 0 | 29.4 | 48.7 | 83.7 | 2.63 | 3.67 | 13.6
CCc1c2c(nc3ccc(O)cc13)-c1cc3c(c(=O)n1C2)COC(=O)[C@]3(O)CC [SN-38] (max concentration tested 10000 nM) | 20.4 | 100 | 77.9 | 99.7 | 36.1 | 22.9 | 36.9
O=C(Nc1cccc(Cl)c1)Nc1ncc(CCNc2ncnc3ccsc23)s1 [SNS-314] (max concentration tested 1000 nM) | 0 | 53.3 | 23.8 | 36.5 | 4.4 | 2.01 | 8.57
Cc1cc2c(C(=O)NC[C@H](C)c3ccccc3)c(O)c(O)cc2c(O)c1-c1c(C)cc2c(C(=O)NC[C@H](C)c3ccccc3)c(O)c(O)cc2c1O [Sabutoclax] (max concentration tested 25000 nM) | 0 | 99.7 | 96.5 | 89.2 | 19.6 | 4.91 | 17.3
CNC(=O)CN1CCC(Oc2cc3c(Nc4cccc(Cl)c4F)ncnc3cc2OC)CC1 [Sapitinib] (max concentration tested 1000 nM) | 0 | 11.1 | 9.33 | 15.3 | 0.17 | 0 | 0.48
O=C(/C=C\n1cnc(-c2cc(C(F)(F)F)cc(C(F)(F)F)c2)n1)NNc1cnccn1 [Selinexor] (max concentration tested 10000 nM) | 1.86 | 101 | 72.3 | 95.3 | 19.8 | 11.3 | 21.4
Cc1cc(C)c(/C=C2\C(=O)Nc3ccccc32)[nH]1 [Semaxanib] (max concentration tested 10000 nM) | 4.89 | -7.06 | 0.19 | 14.4 | 0 | 0 | 2.84
O=C(O)c1ccc2c(c1)nc(Nc1cccc(Cl)c1)c1ccncc12 [Silmitasertib] (max concentration tested 10000 nM) | 0 | 52.4 | 66.2 | 97.4 | 2.47 | 4.36 | 6.93
Cc1c(C(=O)Nc2ccc(N3C[C@@H](C)O[C@@H](C)C3)nc2)cccc1-c1ccc(OC(F)(F)F)cc1 [Sonidegib] (max concentration tested 10000 nM) | 0 | 22.7 | 30.6 | 8.09 | 1.21 | 3.23 | 0
C=CC(=O)Nc1cccc(Nc2nc(Nc3ccc(OCCOC)cc3)ncc2F)c1 [Spebrutinib] (max concentration tested 1000 nM) | 0 | 12.6 | 20.7 | 15.3 | 0.45 | 0.48 | 0.89
CC(C)(O)CC(=O)NCCn1ccc2ncnc(Nc3ccc(Oc4cccc(C(F)(F)F)c4)c(Cl)c3)c21 [TAK-285] (max concentration tested 2500 nM) | 0 | -0.95 | -2.72 | 6.24 | 0 | 0.89 | 0
N#Cc1c(Oc2ccc(F)c(NC(=O)Cc3cccc(C(F)(F)F)c3)c2)ccc2nc(NC(=O)C3CC3)sc12 [TAK-632] (max concentration tested 10000 nM) | 0 | 32.1 | 37.5 | 10.2 | 1.14 | 1.38 | 0
CCc1nc(-c2cccc(C)c2)c(-c2ccnc(NC(=O)c3ccccc3)c2)s1 [TAK-715] (max concentration tested 10000 nM) | 0 | 27.9 | 19.3 | 24 | 2.55 | 0.81 | 2.91
COc1cc(C(=O)NC2CCN(C)CC2)c(F)cc1Nc1ncc2c(n1)N(C1CCCC1)CC(F)(F)C(=O)N2C [TAK-960] (max concentration tested 2500 nM) | 0 | 16.2 | 11.9 | 2.44 | 0.18 | 0 | 0

Source: the supplement of paper PMC5579334
